Data published in PubChem BioAssay AID2060909 (Molecular Pharmacology Branch, DTP, NCI, 2025).

Test system: 362531-283-R-J2-PDC complex spheroid viability
Test: Anticancer human tumor 362531-283-R-J2-PDC patient-derived colon adenocarcinoma cell line growth inhibition [RAS]
Conditions: for IC50: curve of first compound; for viability, T/C: stronger effect = lower value; active = viability on the fitted dose curve at most 10% of control; inactive = the rest
Outline: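 Tumour cells grown as complex spheroids with HUVEC endothelial cells and mesenchymal stem cells, treated with RAS pathway inhibitor combinations. Each agent spans half-log steps from near clinical Cmax, or 10 microM where Cmax is unknown.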

[1] = second compound 0.000949 µM, first compound 0.0316 µM
[2] = second compound 0.000949 µM, first compound 0.1 µM
[3] = second compound 0.000949 µM, first compound 0.316 µM
[4] = second compound 0.000949 µM, first compound 1 µM
[5] = second compound 0.003 µM, first compound 0.0316 µM
[6] = second compound 0.003 µM, first compound 0.1 µM
[7] = second compound 0.003 µM, first compound 0.316 µM
[8] = second compound 0.003 µM, first compound 1 µM
[9] = second compound 0.00949 µM, first compound 0.0316 µM
[10] = second compound 0.00949 µM, first compound 0.1 µM
[11] = second compound 0.00949 µM, first compound 0.316 µM
[12] = second compound 0.00949 µM, first compound 1 µM
[13] = second compound 0.03 µM, first compound 0.0316 µM
[14] = second compound 0.03 µM, first compound 0.1 µM
[15] = second compound 0.03 µM, first compound 0.316 µM
[16] = second compound 0.03 µM, first compound 1 µM
[17] = second compound 0.0949 µM, first compound 0.0316 µM
[18] = second compound 0.0949 µM, first compound 0.1 µM
[19] = second compound 0.0949 µM, first compound 0.316 µM
[20] = second compound 0.0949 µM, first compound 1 µM
[21] = second compound 0.3 µM, first compound 0.0316 µM
[22] = second compound 0.3 µM, first compound 0.1 µM
[23] = second compound 0.3 µM, first compound 0.316 µM
[24] = second compound 0.3 µM, first compound 1 µM
[25] = second compound 0.000949 µM, first compound 3.16 µM
[26] = second compound 0.000949 µM, first compound 10 µM
[27] = second compound 0.003 µM, first compound 3.16 µM
[28] = second compound 0.003 µM, first compound 10 µM
[29] = second compound 0.00949 µM, first compound 3.16 µM
[30] = second compound 0.00949 µM, first compound 10 µM
[31] = second compound 0.03 µM, first compound 3.16 µM
[32] = second compound 0.03 µM, first compound 10 µM
[33] = second compound 0.0949 µM, first compound 3.16 µM
[34] = second compound 0.0949 µM, first compound 10 µM
[35] = second compound 0.3 µM, first compound 3.16 µM
[36] = second compound 0.3 µM, first compound 10 µM
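Note: spheroids exposed to the agents for 7 days before readout.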
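Throughout, for viability, T/C: luminescence viability as percent of DMSO vehicle control wells.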

CCN1CCN(Cc2ccc(Nc3ncc(F)c(-c4cc(F)c5nc(C)n(C(C)C)c5c4)n3)nc2)CC1 + CCn1c(-c2cc(N3CCN(C)CC3)cnc2C(C)OC)c2c3cc(ccc31)-c1csc(n1)CC(NC(=O)C1CC1C)C(=O)N1CCCC(N1)C(=O)OCC(C)(C)C2
308 nM: IC50 (second compound 0.03 µM)
112 nM: IC50 (second compound 0.0949 µM)
471 nM: IC50 (second compound 0.00949 µM)
inactive: viability, T/C (second compound 0.000949 µM, first compound 0.00316 µM) 95.6% | viability, T/C (second compound 0.000949 µM, first compound 0.01 µM) 114% | viability, T/C [1] 99.2% | viability, T/C [2] 90.4% | viability, T/C [3] 69.9% | viability, T/C [4] 46.1% | viability, T/C (second compound 0.003 µM, first compound 0.00316 µM) 106% | viability, T/C (second compound 0.003 µM, first compound 0.01 µM) 110% | viability, T/C [5] 96.4% | viability, T/C [6] 87.8% | viability, T/C [7] 66.6% | viability, T/C [8] 43.1% | viability, T/C (second compound 0.00949 µM, first compound 0.00316 µM) 102% | viability, T/C (second compound 0.00949 µM, first compound 0.01 µM) 112% | viability, T/C [9] 105% | viability, T/C [10] 100% | viability, T/C [11] 61.4% | viability, T/C [12] 28.4% | viability, T/C (second compound 0.03 µM, first compound 0.00316 µM) 102% | viability, T/C (second compound 0.03 µM, first compound 0.01 µM) 96.8% | viability, T/C [13] 93.2% | viability, T/C [14] 73.5% | viability, T/C [15] 50.1% | viability, T/C [16] 15.2% | viability, T/C (second compound 0.0949 µM, first compound 0.00316 µM) 86.9% | viability, T/C (second compound 0.0949 µM, first compound 0.01 µM) 81% | viability, T/C [17] 81.7% | viability, T/C [18] 54.2% | viability, T/C [19] 10.9% | viability, T/C [20] 13.2% | viability, T/C (second compound 0.3 µM, first compound 0.00316 µM) 48.4% | viability, T/C (second compound 0.3 µM, first compound 0.01 µM) 46.8% | viability, T/C [21] 40% | viability, T/C [22] 13.3%
830 nM: IC50 (second compound 0.000949 µM)
< 3.16 nM: IC50 (second compound 0.3 µM)
714 nM: IC50 (second compound 0.003 µM)
active: viability, T/C [23] 6.94% | viability, T/C [24] 11.1%

Cc1nc(N2CCC3(CC2)COC(C)C3N)c(CO)nc1Sc1ccnc(N)c1Cl (stereo unspecified) + CCn1c(-c2cc(N3CCN(C)CC3)cnc2C(C)OC)c2c3cc(ccc31)-c1csc(n1)CC(NC(=O)C1CC1C)C(=O)N1CCCC(N1)C(=O)OCC(C)(C)C2
1870 nM: IC50 (second compound 0.03 µM)
> 10000 nM: IC50 (second compound 0.000949 µM) | IC50 (second compound 0.003 µM)
529 nM: IC50 (second compound 0.0949 µM)
< 31.6 nM: IC50 (second compound 0.3 µM)
inactive: viability, T/C [1] 95.4% | viability, T/C [2] 122% | viability, T/C [3] 89% | viability, T/C [4] 93.7% | viability, T/C [25] 86.4% | viability, T/C [26] 70.5% | viability, T/C [5] 103% | viability, T/C [6] 113% | viability, T/C [7] 94.8% | viability, T/C [8] 89.6% | viability, T/C [27] 92.8% | viability, T/C [28] 72.4% | viability, T/C [9] 104% | viability, T/C [10] 113% | viability, T/C [11] 84.7% | viability, T/C [12] 88.9% | viability, T/C [29] 88% | viability, T/C [30] 37.1% | viability, T/C [13] 102% | viability, T/C [14] 104% | viability, T/C [15] 74.3% | viability, T/C [16] 68.9% | viability, T/C [31] 36.9% | viability, T/C [17] 77.7% | viability, T/C [18] 77% | viability, T/C [19] 65.2% | viability, T/C [20] 30.9% | viability, T/C [21] 47.3% | viability, T/C [22] 37.8% | viability, T/C [23] 18.9%
7340 nM: IC50 (second compound 0.00949 µM)
active: viability, T/C [32] 7.23% | viability, T/C [33] 8.1% | viability, T/C [34] 4.24% | viability, T/C [24] 6.49% | viability, T/C [35] 5.54% | viability, T/C [36] 3.65%

NC1c2ccccc2OC12CCN(c1cnc3c(N4CCCc5ncccc54)n[nH]c3n1)CC2 (stereo unspecified) + CCn1c(-c2cc(N3CCN(C)CC3)cnc2C(C)OC)c2c3cc(ccc31)-c1csc(n1)CC(NC(=O)C1CC1C)C(=O)N1CCCC(N1)C(=O)OCC(C)(C)C2
< 31.6 nM: IC50 (second compound 0.3 µM)
40.1 nM: IC50 (second compound 0.0949 µM)
2040 nM: IC50 (second compound 0.000949 µM)
450 nM: IC50 (second compound 0.00949 µM)
968 nM: IC50 (second compound 0.003 µM)
inactive: viability, T/C [1] 93% | viability, T/C [2] 97.3% | viability, T/C [3] 88% | viability, T/C [4] 75.2% | viability, T/C [25] 34.6% | viability, T/C [26] 15.8% | viability, T/C [5] 95.2% | viability, T/C [6] 90.3% | viability, T/C [7] 81.8% | viability, T/C [8] 50.8% | viability, T/C [27] 8.91% | viability, T/C [9] 91.7% | viability, T/C [10] 96.4% | viability, T/C [11] 67.1% | viability, T/C [12] 11% | viability, T/C [13] 94.4% | viability, T/C [14] 70.9% | viability, T/C [15] 13% | viability, T/C [17] 56.5% | viability, T/C [18] 25.1% | viability, T/C [21] 16.5%
152 nM: IC50 (second compound 0.03 µM)
active: viability, T/C [28] 4.54% | viability, T/C [29] 4.02% | viability, T/C [30] 2.36% | viability, T/C [16] 7.15% | viability, T/C [31] 5.36% | viability, T/C [32] 2.24% | viability, T/C [19] 6.77% | viability, T/C [20] 4.69% | viability, T/C [33] 4.6% | viability, T/C [34] 2.33% | viability, T/C [22] 9.81% | viability, T/C [23] 5.67% | viability, T/C [24] 4.89% | viability, T/C [35] 4.53% | viability, T/C [36] 2.17%
